Laboratory results: patent US20220409775A1, “INJECTABLE HYDROGEL COMPOSITION HAVING ENDOGENOUS PROGENITOR OR STEM CELL RECRUITMENT AND INDUCTION OF VASCULAR DIFFERENTIATION OF RECRUITED CELLS” (Ajou University Industry-Academic Cooperation Foundation, priority 2019, published 2022)

Columns and labels:
[1] = In vitro release of stem cell recruitment factor (SP) and VP from hydrogels; assay type: physicochemical; conditions: physiological saline, 37° C., 100 rpm, 28 days; CHHA+SP and CHHA-VP+SP hydrogels
Procedure: First, an HA+VP solution was prepared by simply mixing VP with the HA solution prepared in Example 3 at a concentration of 320 μg/mL, and SP, which is a stem cell recruitment factor, was mixed with each of the HA solution and HA-VP solution at a concentration of 2 μg/mL to prepare an HA+SP solution and HA−VP+SP solution, respectively.
Next, 100 μL of the CH solution and 100 μL of the HA+VP solution were mixed in a vial to prepare 200 μL of a CHHA+VP hydrogel, and 100 μL of the CH solution and 100 μL of the HA-VP solution were mixed in a vial to prepare 200 μL of a CHHA-VP hydrogel.
In addition, 100 μL of the CH solution and 100 μL of HA+SP solution were mixed in a vial to prepare 200 μL of a CHHA+SP hydrogel, and 100 μL of the CH solution and 100 μL of the HA-VP+SP solution were mixed in a vial to prepare 200 μL of a CHHA-VP+SP hydrogel.
3 mL of a physiological saline was placed in each vial and stored in an incubator at 100 rpm and 37° C., and after taking 1 mL of the physiological saline from the vial at a predetermined time, 1 mL of a new physiological saline was added to the vial, and it was carried it out for 28 days to conduct a release experiment.

[2] = test system: human-derived mesenchymal stem cells (hMSCs); test: SP's ability to recruit stem cells (trans well migration); assay type: cell-based
Procedure: First, human-derived mesenchymal stem cells (hMSCs) were labeled with PKH 26 dye (Sigma, USA) and then dispensed in the upper chamber (8.0 μm pore size) of a 24-well trans well plate (SPL, Korea) to be 5×10^4 cells. After culturing in the upper chamber for 48 hours using serum-free DMEM (Dubelco's modified eagle medium, Gibco, USA) medium, DMEM containing 1 μg/mL SP and 1% FBS (fetal bovine serum, Gibco, USA) was added to the bottom well, and the medium was replaced every 3 days, and the hMSCs that migrated to the bottom well were observed using a fluorescence microscope (Olympus, Japan). As a control group, DMEM (including 1% FBS) without SP was added to the bottom well and observed.

[3] = 1 μg/mL SP in bottom well, DMEM with 1% FBS

Substance P [SP]
release of SP from hydrogel [1]: release of SP occurred regardless of the chemical introduction of VP | Migration rate of hMSC [2, 3]: 1.9 × 10^3 cells/day | Rate constant [2, 3]: -0.49 day⁻¹ | cells migrated to the lower side ([2]; SP present compared with SP absent): more cells migrated to the lower side | Relative migration rate ([2]; SP relative to Cont (no SP)): 1.7
